Data reported in patent US20240325298A1, “COMPOSITIONS, METHODS AND SYSTEMS FOR AEROSOL DRUG DELIVERY” (AstraZeneca Pharmaceuticals LP, priority 2021, published 2024).

Assays:
[1] = Particle size distribution by laser diffraction (optical diameter); format: physicochemical
Source text: When referred to herein, the term “optical diameter” indicates the size of a particle as measured by the Fraunhofer diffraction mode using a laser diffraction particle size analyzer equipped with a dry powder dispenser (e.g., Sympatec GmbH, Clasthal-Zellerfeld, Germany).
Suspending particles were manufactured by spray drying an emulsion of PFOB (perfluorooctyl bromide) and water stabilized by DSPC (1,2-Distearoyl-sn-Glycero-3-Phosphocholine). […] The particle size distribution of the suspending particles was determined by laser diffraction.
Active agent particles formed of budesonide, 16,17-(butylidenebis(oxy))-11,21-dihydroxy-(11-β,16-α)-pregna-1,4-diene-3,20-dione, were formed by micronizing budesonide using a jet mill. The particle size distribution of the budesonide (BD) was determined by laser diffraction.

[2] = NGI aerosol performance stability data after storage of the MDI (valve down, protected); format: physicochemical; conditions: stored valve down and protected at 25° C./60% RH
[3] = budesonide/formoterol co-suspension in HFO-1234ze(E)

| Compound | optical diameter that 50% by volume of the particles are smaller than [1] | optical diameter that 90% by volume of the particles are smaller than [1] | stability of the aPSD ([2]; budesonide/albuterol co-suspension in HFO-1234ze(E)) | stability of the aPSD [2, 3] |
| --- | --- | --- | --- | --- |
| albuterol sulfate | smaller than 1.5 μm | smaller than 3.3 μm | – | – |
| CCCC1O[C@@H]2C[C@H]3[C@@H]4CCC5=CC(=O)C=C[C@]5(C)[C@H]4[C@@H](O)C[C@]3(C)[C@]2(C(=O)CO)O1 (stereo partly drawn) [budesonide, 16,17-(butylidenebis(oxy))-11,21-dihydroxy-(11-β,16-α)-pregna-1,4-diene-3,20-dione] | – | – | stable for twelve months | stable for twelve months |
| C[N+]1(C)CCC(OC(=O)C(O)(c2ccccc2)C2CCCC2)C1.[Br-] (stereo not drawn) [glycopyrrolate, Pyrrolidinium, 3-((cyclopentylhydroxyphenylacetyl)oxy)-1,1-dimethyl-, bromide] | smaller than 2.1 μm | smaller than 5 μm | – | – |
| CCCCCCCCCCCCCCCCCC(=O)OC[C@H](COP(=O)([O-])OCC[N+](C)(C)C)OC(=O)CCCCCCCCCCCCCCCCC [DSPC, 1,2-Distearoyl-sn-Glycero-3-Phosphocholine] | – | – | – | stable for twelve months |
| COc1ccc(CC(C)NCC(O)c2ccc(O)c(NC=O)c2)cc1.O=C(O)/C=C/C(=O)O (racemic) [formoterol fumarate, (±)-2-hydroxy-5-[(1RS)-1-hydroxy-2-[[(1RS)-2-(4-methoxyphenyl)-1-methylethyl]-amino]ethyl]formanilide fumarate] | smaller than 1.6 μm | smaller than 3.9 μm | – | – |
